The subject of series [1] is vaccinia virus IHD-J (EEV). Format: cell-based.
Series [2] has as its system vaccinia virus WR strain. The series is classed as cell-based.
Series [3] concerns vaccinia virus WR strain. Format: cell-based. Particulars: 16 h.
The subject of another series is vaccinia virus. Format: cell-based.
Another series has as its system CV-1 cells. The experiment in a line: Cytostatic activity. As to conditions: CV-1 cells seeded at 3.5 × 10^3 cells/well; 24 h incubation; cells counted.
In series [4] the test system is vaccinia virus Western Reserve (WR) strain. Format: cell-based.
Series [5] has as its system vaccinia virus International Health Department-J (IHD-J) strain. Format: cell-based.
The test system of another series is HeLa S3 cells. The experiment in a line: Cell proliferation assay, 3H-thymidine uptake. As to conditions: 2 days + 16 h, single experiment.
For series [6], the system named is VV, VSV, HSV-1, HSV-2, Coxsackie virus B4 and poliovirus-1. Particulars: cited from earlier work.
In another series the test system is camelpox. As to conditions: read-out: EC50 (camelpox); cited from earlier work.
For a further series, the system named is vaccinia. As to conditions: read-out: EC50 (vaccinia); cited from earlier work.
The next series concerns monkeypox. As to conditions: read-out: EC50 (monkeypox); cited from earlier work.
The subject of a further series is cowpox. Particulars: read-out: EC50 (cowpox); cited from earlier work.

The source of these data is article PMC166128 (BMC Infectious Diseases, 2003).

By % inhibition is commonly meant the change of the read-out against control, counted positive when it falls. Higher therefore signals a strong effect. Broadly, the EC50 is the concentration that produces a half-maximal response.

Where two headings read alike, the source gives them in different places.

Regarding “sulfonated 5,10,15,20-tetra-naphthalen-1-yl-porphyrin [TNapPS]”, the “EC50 IHD-J (EEV) CV-1” value in series [1] worked out at 1.0 ± 0.1 µg/mL. Also, the “% inhibition” value was 98% in the series with vaccinia virus WR strain [2] (25 µg/mL); 98% with vaccinia virus WR strain [2] (50 µg/mL); 73 ± 16% with vaccinia virus WR strain [3] (25 µg/mL); 92 ± 1% with vaccinia virus WR strain [3] (50 µg/mL); 87 ± 5% with vaccinia virus (25 µg/mL); 95 ± 2% with vaccinia virus (50 µg/mL). For the same compound, the titer in the series with vaccinia virus WR strain [2] (25 µg/mL) is given as 3.5 × 10^5 pfu/mL; with vaccinia virus WR strain [2] (50 µg/mL) it was 2.6 × 10^5 pfu/mL; in the series on vaccinia virus WR strain [3] (25 µg/mL), 3.5 × 10^5 pfu/mL; with vaccinia virus WR strain [3] (50 µg/mL), 1.0 × 10^5 pfu/mL; in the series with vaccinia virus (25 µg/mL), 3.3 × 10^4 pfu/mL; in the series on vaccinia virus (50 µg/mL), 1.3 × 10^4 pfu/mL. The “CC50 Cytostatic activity” value in the series with CV-1 cells came to 400 µg/mL.
On to copper hematoporphyrin [CuHPIX], for which the “EC50 WR BSC-40” value in series [4] stood at 0.03 ± 0.01 µg/mL. Also, the “EC50 WR CV-1” value in series [4] was determined as 7.8 ± 0.9 µg/mL. The “EC50 IHD-J CV-1” value in series [5] was 1.5 ± 0.4 µg/mL. The “EC50 IHD-J (EEV) BSC-40” value in series [1] amounted to 0.32 ± 0.13 µg/mL. In addition, the “EC50 IHD-J (EEV) CV-1” value in [1] was determined as 1.1 ± 0.4 µg/mL. Besides, the “% inhibition” value is on record as 93% in the series with vaccinia virus WR strain [2] (25 µg/mL); 97% in the series with vaccinia virus WR strain [2] (50 µg/mL); 33 ± 9% in the series on vaccinia virus WR strain [3] (25 µg/mL); 71 ± 4% in the series with vaccinia virus WR strain [3] (50 µg/mL); 80 ± 2% in the series with vaccinia virus (25 µg/mL); 91 ± 2% in the series with vaccinia virus (50 µg/mL). Further, the titer in the series on vaccinia virus WR strain [2] (25 µg/mL) is on record as 1.1 × 10^6 pfu/mL; in the series with vaccinia virus WR strain [2] (50 µg/mL), 4.5 × 10^5 pfu/mL; in the series on vaccinia virus WR strain [3] (25 µg/mL) it was 1.3 × 10^6 pfu/mL; in the series on vaccinia virus WR strain [3] (50 µg/mL), 6.3 × 10^5 pfu/mL; with vaccinia virus (25 µg/mL), 5.0 × 10^4 pfu/mL; in the series on vaccinia virus (50 µg/mL), 2.3 × 10^4 pfu/mL. Moreover, the “CC50 Cell proliferation” value in the series on HeLa S3 cells came out at 36 µg/mL.
As to “sulfonated copper phthalocyanine [CuPcS(3444)]”, the “EC50 IHD-J CV-1” value in series [5] is 14 ± 5.3 µg/mL. Besides, in series [1], the “EC50 IHD-J (EEV) BSC-40” value was 50 ± 7 µg/mL. Also, the “EC50 IHD-J (EEV) CV-1” value in [1] is 8.2 ± 1.3 µg/mL. Further, the “% inhibition” value is reported as 60% in the series with vaccinia virus WR strain [2] (25 µg/mL); 74% in the series with vaccinia virus WR strain [2] (50 µg/mL); 49 ± 21% in the series on vaccinia virus WR strain [3] (25 µg/mL); 59 ± 2% in the series on vaccinia virus WR strain [3] (50 µg/mL); 92 ± 3% in the series on vaccinia virus (25 µg/mL); 90 ± 2% in the series with vaccinia virus (50 µg/mL). For the same compound, the titer with vaccinia virus WR strain [2] (25 µg/mL) was 6.3 × 10^6 pfu/mL; in the series with vaccinia virus WR strain [2] (50 µg/mL) it was 4.1 × 10^6 pfu/mL; in the series on vaccinia virus WR strain [3] (25 µg/mL) it was 9.3 × 10^5 pfu/mL; in the series on vaccinia virus WR strain [3] (50 µg/mL), 8.3 × 10^5 pfu/mL; in the series on vaccinia virus (25 µg/mL), 2.1 × 10^4 pfu/mL; in the series with vaccinia virus (50 µg/mL) it was 2.4 × 10^4 pfu/mL. In addition, in the series on CV-1 cells, the “CC50 Cytostatic activity” value is over 1000 µg/mL. Besides, the “CC50 Cell proliferation” value in the series with HeLa S3 cells is on record as over 500 µg/mL.
Take “Fe meso-tetrakis(3,4-disulfonatomesityl)porphyrin [FeTMPS]”: the “EC50s for VV, VSV, HSV-1, HSV-2, Coxsackie virus B4 and poliovirus-1” value in series [6] is listed as at least 20 µg/mL.
As to `C=CC1=C(C)c2cc3[n-]c(cc4nc(cc5[n-]c(cc1n2)c(C)c5C=C)C(C)=C4CCC(=O)O)c(CCC(=O)O)c3C.[Zn+2]` [ZnPPIX, zinc protoporphyrin], the “EC50 WR CV-1” value in series [4] was 15 ± 12 µg/mL. In [1], the “EC50 IHD-J (EEV) CV-1” value amounted to 38 ± 7.8 µg/mL. Further, the “% inhibition” value with vaccinia virus WR strain [2] (25 µg/mL) is reported as 98%; with vaccinia virus WR strain [2] (50 µg/mL), 99%; with vaccinia virus WR strain [3] (25 µg/mL), 65 ± 0.3%; in the series on vaccinia virus WR strain [3] (50 µg/mL), 70 ± 4%; in the series with vaccinia virus (25 µg/mL), 92 ± 1%; with vaccinia virus (50 µg/mL), 99 ± 7%. The titer with vaccinia virus WR strain [2] (25 µg/mL) was 2.5 × 10^5 pfu/mL; in the series with vaccinia virus WR strain [2] (50 µg/mL) it was 1.0 × 10^5 pfu/mL; with vaccinia virus WR strain [3] (25 µg/mL), 7.2 × 10^5 pfu/mL; in the series on vaccinia virus WR strain [3] (50 µg/mL), 6.4 × 10^5 pfu/mL; in the series with vaccinia virus (25 µg/mL), 2.1 × 10^4 pfu/mL; with vaccinia virus (50 µg/mL), 3.2 × 10^3 pfu/mL. Besides, the “CC50 Cytostatic activity” value with CV-1 cells came out at 370 µg/mL. Moreover, in the series with HeLa S3 cells, the “CC50 Cell proliferation” value came out at 25 µg/mL.
In the case of `Nc1ccn(C[C@@H](CO)OCP(=O)(O)O)c(=O)n1` [cidofovir], the EC50 in the series with camelpox was 2.3 µM; in the series with vaccinia it was 46.2 µM; with monkeypox it was 27 µM; with cowpox, 58 µM.
Take `O=C(O)c1ccc(-c2c3nc(c(-c4ccc(C(=O)O)cc4)c4ccc([nH]4)c(-c4ccc(C(=O)O)cc4)c4nc(c(-c5ccc(C(=O)O)cc5)c5ccc2[nH]5)C=C4)C=C3)cc1` [TPPC, meso-tetra(4-carboxyphenyl)porphyrin]: the “EC50s for VV, VSV, HSV-1, HSV-2, Coxsackie virus B4 and poliovirus-1” value in [6] is at least 20 µg/mL.
